Results published in US20130260391A1, “Method Of Determining The Protease Cathepsin B In A Biological Sample” (priority 2010, published 2013).

Biological target: T1, cathepsin B (Homo sapiens, UniProt P07858)
T1 construct: Conversion of procathepsin B in the sample into the active form of cathepsin B; from tissue; host or cells: serum sample
Experiment: enzyme assay of cathepsin B activity in deinhibited serum sample with substrate Z-Arg-Arg-AFC (fluorescence)
Assay type: biochemical
Conditions: inhibitor added to the enzyme assay after withdrawing the protease inhibitor; compared with the signal before withdrawing the inhibitor
Protocol: 6) Measuring the activity of cathepsin B in the sample
To 110 μl of the serum samples, which have been treated as described, in 0.5 ml reaction vessels 110 μl of a solution of the substrate (70 μM Z-Arg-Arg-AFC) are added, the pH-value of which is set at pH=6 by phosphate buffer and which contains 5 mM EDTA and 10 mM DTE. After mixing the samples are incubated for 120 min at 37° C. Subsequently the reaction vessels are cooled down with ice, centrifuged for a short time so as to bring the water condensed at the cap of the reaction vessel back to the solution and then the fluorescence emission is recorded, either on a microtiter plate by means of a fluorescence reader or in a cuvette by means of a fluorimeter. The excitation wavelength is at about 400 nm, and a suitable detection wavelength is at about 505 nm.
Thus evidence is established that the value measured in the enzyme assay after withdrawing the inhibitor relates to cathepsin B which is set free.

Row | SMILES | measurement signal of the enzyme assay after addition of the inhibitor
1 | CC(C)C[C@H](NC(=O)[C@H]1O[C@@H]1C(=O)O)C(=O)NCCCCN=C(N)N [E 64] | the same as the measuring signal, which is obtained, when the enzyme assay is carried out before withdrawing the inhibitor
2 | CCCNC(=O)[C@H]1O[C@@H]1C(=O)N[C@H](C(=O)N1CCC[C@H]1C(=O)O)[C@@H](C)CC [CA-074] | the same as the measuring signal, which is obtained, when the enzyme assay is carried out before withdrawing the inhibitor
